Tests used:
Assay in all cases: radiometric filter-binding kinase assay, Kinase HotSpot
Conditions in all cases: compound 0.5 µM; ATP 10 µM
[1] = biological target: CLK2 (human) (UniProt P49760)
[2] = biological target: ALK (human) (UniProt Q9UM73)
[3] = biological target: WNK2 (human) (UniProt Q9Y3S1)
[4] = biological target: GRK6 (human) (UniProt P43250)
[5] = biological target: WNK3 (human) (UniProt Q9BYP7)
[6] = biological target: STK16 (human) (UniProt O75716)
[7] = biological target: RPS6KA6 KD1 KD2 (human) (UniProt Q9UK32)
[8] = biological target: DDR2 (human) (UniProt Q16832)
[9] = biological target: PLK2 (human) (UniProt Q9NYY3)
[10] = biological target: JAK2 JH1 JH2 (human) (UniProt O60674)
[11] = biological target: CSNK2A1 (human) (UniProt P68400)
[12] = biological target: PRKX (human) (UniProt P51817)
[13] = biological target: DAPK2 (human) (UniProt Q9UIK4)
[14] = biological target: MYLK (human) (UniProt Q15746)
[15] = biological target: CSK (human) (UniProt P41240)
[16] = biological target: MLTK (human) (UniProt Q9NYL2)
[17] = biological target: LTK (human) (UniProt P29376)
[18] = biological target: ZAP70 (human) (UniProt P43403)
[19] = biological target: TTK (human) (UniProt P33981)
[20] = biological target: SRPK1 (human) (UniProt Q96SB4)
[21] = biological target: PRKACA (human) (UniProt P17612)
[22] = biological target: FGFR3 (human) (UniProt P22607)
[23] = biological target: NEK4 (human) (UniProt P51957)
[24] = biological target: FGFR1 (human) (UniProt P11362)
[25] = biological target: DYRK1A (human) (UniProt Q13627)
[26] = biological target: MARK2 (human) (UniProt Q7KZI7)
[27] = biological target: PKN2 (human) (UniProt Q16513)
[28] = biological target: EPHA3 (human) (UniProt P29320)
[29] = biological target: GSK3A (human) (UniProt P49840)
[30] = biological target: HCK (human) (UniProt P08631)
[31] = biological target: PRKCA (human) (UniProt P17252)
[32] = biological target: IRAK1 (human) (UniProt P51617)
[33] = biological target: BRSK2 (human) (UniProt Q8IWQ3)
[34] = biological target: CDK6 CCND3 (human) (UniProt P30281+Q00534)
[35] = biological target: MAP3K7 TAB1 (human) (UniProt O43318+Q15750)
[36] = biological target: SIK2 (human) (UniProt Q9H0K1)
[37] = biological target: FGFR2 (human) (UniProt P21802)
[38] = biological target: BLK (human) (UniProt P51451)
[39] = biological target: RPS6KA4 KD2 (human) (UniProt O75676)
[40] = biological target: ERBB4 (human) (UniProt Q15303)
[41] = biological target: STK39 (human) (UniProt Q9UEW8)
[42] = biological target: CAMKK2 (human) (UniProt Q96RR4)

Chain of WNK3 (human) (Q9BYP7 whole entry, looked up): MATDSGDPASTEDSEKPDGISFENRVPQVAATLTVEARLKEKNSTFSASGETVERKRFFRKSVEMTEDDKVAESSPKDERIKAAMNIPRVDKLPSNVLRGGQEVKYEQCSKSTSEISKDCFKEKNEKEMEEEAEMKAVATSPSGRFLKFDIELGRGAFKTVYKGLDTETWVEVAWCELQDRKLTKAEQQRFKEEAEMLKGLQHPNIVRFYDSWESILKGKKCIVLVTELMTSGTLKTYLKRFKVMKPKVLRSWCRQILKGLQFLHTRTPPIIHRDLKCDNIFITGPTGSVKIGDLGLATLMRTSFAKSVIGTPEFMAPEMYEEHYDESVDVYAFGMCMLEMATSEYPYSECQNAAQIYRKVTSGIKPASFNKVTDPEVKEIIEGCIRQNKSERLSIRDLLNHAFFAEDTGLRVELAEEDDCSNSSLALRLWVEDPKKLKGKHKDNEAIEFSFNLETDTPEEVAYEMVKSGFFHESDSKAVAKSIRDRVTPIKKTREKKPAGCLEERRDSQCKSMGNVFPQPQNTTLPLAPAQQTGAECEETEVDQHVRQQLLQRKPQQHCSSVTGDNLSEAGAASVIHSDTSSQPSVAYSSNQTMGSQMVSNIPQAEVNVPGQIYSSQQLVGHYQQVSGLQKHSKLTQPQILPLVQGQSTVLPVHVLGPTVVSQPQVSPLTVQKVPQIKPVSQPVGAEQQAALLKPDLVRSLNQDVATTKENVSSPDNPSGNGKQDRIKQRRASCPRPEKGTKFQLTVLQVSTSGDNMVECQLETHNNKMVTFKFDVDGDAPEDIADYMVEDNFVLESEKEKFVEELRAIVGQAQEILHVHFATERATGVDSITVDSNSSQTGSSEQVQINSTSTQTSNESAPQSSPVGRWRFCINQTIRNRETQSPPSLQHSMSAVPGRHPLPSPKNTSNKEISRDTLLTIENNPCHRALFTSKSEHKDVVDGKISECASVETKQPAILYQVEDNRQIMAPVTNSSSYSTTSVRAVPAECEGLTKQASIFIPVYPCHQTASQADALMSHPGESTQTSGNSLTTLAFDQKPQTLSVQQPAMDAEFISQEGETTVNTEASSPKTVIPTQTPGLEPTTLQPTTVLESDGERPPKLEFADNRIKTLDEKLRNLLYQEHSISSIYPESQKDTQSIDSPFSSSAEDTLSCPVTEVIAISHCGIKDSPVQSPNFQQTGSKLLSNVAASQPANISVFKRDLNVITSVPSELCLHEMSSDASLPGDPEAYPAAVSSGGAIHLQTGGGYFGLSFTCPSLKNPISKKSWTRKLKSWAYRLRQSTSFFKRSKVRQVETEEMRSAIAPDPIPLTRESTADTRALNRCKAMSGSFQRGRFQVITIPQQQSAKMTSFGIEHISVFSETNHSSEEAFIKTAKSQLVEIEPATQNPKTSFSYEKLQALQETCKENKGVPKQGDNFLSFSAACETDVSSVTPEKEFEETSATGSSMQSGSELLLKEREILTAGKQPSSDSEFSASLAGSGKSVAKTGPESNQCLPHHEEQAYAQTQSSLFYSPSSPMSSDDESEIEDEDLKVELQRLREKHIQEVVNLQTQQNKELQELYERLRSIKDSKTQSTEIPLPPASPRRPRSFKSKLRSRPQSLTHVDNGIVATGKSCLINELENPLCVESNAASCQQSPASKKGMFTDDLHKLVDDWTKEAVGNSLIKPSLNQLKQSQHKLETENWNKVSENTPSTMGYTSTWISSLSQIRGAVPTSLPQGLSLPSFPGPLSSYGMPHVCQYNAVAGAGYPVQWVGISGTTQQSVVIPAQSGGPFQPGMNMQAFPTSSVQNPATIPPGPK
Chain of TTK (human) (P33981 whole entry, looked up): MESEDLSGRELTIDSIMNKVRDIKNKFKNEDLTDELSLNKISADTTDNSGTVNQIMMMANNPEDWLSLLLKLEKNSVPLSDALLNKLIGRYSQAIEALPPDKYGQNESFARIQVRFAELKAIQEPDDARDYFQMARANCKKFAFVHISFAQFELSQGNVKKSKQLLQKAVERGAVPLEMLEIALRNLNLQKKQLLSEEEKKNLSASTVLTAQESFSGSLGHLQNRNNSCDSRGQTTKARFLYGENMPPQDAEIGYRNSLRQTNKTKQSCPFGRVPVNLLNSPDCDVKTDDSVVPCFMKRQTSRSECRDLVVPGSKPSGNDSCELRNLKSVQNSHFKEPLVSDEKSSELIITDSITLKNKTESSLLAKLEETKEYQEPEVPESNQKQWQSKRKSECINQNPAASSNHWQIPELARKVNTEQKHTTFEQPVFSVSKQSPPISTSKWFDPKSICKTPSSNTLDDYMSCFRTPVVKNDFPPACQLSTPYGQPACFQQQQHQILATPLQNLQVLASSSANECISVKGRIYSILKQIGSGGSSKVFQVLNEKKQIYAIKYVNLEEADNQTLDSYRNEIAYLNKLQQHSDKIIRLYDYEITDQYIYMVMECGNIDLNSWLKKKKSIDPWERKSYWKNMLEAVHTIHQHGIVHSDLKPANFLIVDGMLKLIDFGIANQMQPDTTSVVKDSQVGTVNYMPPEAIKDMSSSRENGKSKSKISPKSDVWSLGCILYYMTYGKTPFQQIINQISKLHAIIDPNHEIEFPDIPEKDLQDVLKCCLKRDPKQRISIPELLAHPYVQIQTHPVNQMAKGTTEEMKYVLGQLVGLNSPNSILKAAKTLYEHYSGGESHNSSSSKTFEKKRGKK
Chain of BRSK2 (human) (Q8IWQ3 whole entry, looked up): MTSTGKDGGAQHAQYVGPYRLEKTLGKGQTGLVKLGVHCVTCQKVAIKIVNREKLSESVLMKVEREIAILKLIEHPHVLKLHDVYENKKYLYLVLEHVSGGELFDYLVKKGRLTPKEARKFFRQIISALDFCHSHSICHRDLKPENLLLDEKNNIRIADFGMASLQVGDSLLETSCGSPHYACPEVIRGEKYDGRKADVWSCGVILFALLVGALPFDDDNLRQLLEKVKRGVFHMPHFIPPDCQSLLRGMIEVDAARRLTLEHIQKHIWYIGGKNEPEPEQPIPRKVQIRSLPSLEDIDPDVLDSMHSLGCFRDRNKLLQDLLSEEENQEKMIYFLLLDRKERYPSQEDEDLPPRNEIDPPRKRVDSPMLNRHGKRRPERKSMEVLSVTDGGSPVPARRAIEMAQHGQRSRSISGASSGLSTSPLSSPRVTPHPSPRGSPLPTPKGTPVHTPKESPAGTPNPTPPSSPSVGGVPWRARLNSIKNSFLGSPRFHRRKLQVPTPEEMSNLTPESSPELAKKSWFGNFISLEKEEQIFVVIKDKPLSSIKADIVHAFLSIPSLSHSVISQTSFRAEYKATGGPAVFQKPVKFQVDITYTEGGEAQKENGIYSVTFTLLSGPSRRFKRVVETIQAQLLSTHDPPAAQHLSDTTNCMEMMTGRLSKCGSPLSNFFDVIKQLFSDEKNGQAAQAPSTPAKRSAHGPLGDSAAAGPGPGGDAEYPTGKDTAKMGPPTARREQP
Chain of ERBB4 (human) (Q15303 whole entry, looked up): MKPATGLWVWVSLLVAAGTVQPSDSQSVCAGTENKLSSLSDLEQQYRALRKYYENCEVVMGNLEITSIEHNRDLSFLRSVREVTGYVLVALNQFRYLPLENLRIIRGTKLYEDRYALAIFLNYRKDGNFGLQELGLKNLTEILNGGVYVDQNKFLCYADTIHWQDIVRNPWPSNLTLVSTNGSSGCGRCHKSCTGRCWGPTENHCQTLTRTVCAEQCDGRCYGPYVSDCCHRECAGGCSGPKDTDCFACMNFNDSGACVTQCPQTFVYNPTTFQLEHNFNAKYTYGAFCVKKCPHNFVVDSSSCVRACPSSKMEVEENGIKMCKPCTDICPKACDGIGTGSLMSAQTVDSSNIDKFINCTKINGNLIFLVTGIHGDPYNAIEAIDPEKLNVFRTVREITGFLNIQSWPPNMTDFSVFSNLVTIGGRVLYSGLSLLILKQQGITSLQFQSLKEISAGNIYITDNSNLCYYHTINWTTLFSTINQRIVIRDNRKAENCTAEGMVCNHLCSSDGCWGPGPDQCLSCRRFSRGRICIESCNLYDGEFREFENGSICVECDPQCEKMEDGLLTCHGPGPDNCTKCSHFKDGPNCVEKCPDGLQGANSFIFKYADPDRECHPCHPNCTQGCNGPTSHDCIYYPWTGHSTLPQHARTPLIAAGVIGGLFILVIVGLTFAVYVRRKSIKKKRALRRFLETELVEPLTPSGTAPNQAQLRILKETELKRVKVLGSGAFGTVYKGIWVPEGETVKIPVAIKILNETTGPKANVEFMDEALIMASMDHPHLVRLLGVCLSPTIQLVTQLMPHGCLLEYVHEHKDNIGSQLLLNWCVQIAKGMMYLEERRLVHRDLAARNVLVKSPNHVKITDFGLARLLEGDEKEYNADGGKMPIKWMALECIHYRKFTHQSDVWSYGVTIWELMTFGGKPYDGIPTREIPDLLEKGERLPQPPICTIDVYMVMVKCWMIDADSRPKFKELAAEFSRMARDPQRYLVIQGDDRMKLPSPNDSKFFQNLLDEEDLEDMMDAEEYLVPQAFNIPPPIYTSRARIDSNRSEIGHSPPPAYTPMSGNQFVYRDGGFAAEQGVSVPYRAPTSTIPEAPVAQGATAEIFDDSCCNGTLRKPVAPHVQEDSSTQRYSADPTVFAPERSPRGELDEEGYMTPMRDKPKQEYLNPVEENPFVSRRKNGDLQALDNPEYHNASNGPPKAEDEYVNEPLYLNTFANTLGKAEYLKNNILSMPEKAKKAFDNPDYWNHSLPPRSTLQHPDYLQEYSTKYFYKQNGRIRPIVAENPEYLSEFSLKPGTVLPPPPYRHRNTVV
Chain of CSNK2A1 (human) (P68400 whole entry, looked up): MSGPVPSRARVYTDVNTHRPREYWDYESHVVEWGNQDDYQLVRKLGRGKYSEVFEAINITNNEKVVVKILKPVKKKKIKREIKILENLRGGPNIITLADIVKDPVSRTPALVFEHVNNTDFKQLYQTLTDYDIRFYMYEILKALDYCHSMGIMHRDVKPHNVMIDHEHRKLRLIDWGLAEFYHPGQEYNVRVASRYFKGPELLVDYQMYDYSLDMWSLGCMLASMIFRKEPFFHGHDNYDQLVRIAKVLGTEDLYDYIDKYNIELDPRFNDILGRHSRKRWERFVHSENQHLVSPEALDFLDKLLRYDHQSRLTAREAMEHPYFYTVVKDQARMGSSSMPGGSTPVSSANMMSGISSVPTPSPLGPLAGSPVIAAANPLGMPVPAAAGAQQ

**Q.** How did the residual activity [1] turn out when `COc1cc2nccc(Oc3ccc(NC(=S)NC(=O)c4ccccc4C)cc3)c2cc1OC` was run?
**A.** 107%

**Q.** And the residual activity [2]?
**A.** 80.8%

**Q.** And the residual activity [3]?
**A.** 94.1%

**Q.** And the residual activity [4]?
**A.** 91%

**Q.** And the residual activity [5]?
**A.** 101%

**Q.** What about the residual activity [6] of the same molecule?
**A.** 101%

**Q.** What about the residual activity [7] of the same molecule?
**A.** 93%

**Q.** What about the residual activity [8] of the same molecule?
**A.** 54.1%

**Q.** And the residual activity [9]?
**A.** 99.5%

**Q.** What about the residual activity [10] of the same molecule?
**A.** 97.7%

**Q.** And the residual activity [11]?
**A.** 98.9%

**Q.** What about the residual activity [12] of the same molecule?
**A.** 100%

**Q.** And the residual activity [13]?
**A.** 78.7%

**Q.** And the residual activity [14]?
**A.** 104%

**Q.** And the residual activity [15]?
**A.** 75.3%

**Q.** What about the residual activity [16] of the same molecule?
**A.** 71.7%

**Q.** And the residual activity [17]?
**A.** 86.1%

**Q.** And the residual activity [18]?
**A.** 97%

**Q.** And the residual activity [19]?
**A.** 101%

**Q.** What about the residual activity [20] of the same molecule?
**A.** 98%

**Q.** What about the residual activity [21] of the same molecule?
**A.** 91.8%

**Q.** What about the residual activity [22] of the same molecule?
**A.** 88.8%

**Q.** What about the residual activity [23] of the same molecule?
**A.** 97.6%

**Q.** What about the residual activity [24] of the same molecule?
**A.** 75.7%

**Q.** What about the residual activity [25] of the same molecule?
**A.** 95.4%

**Q.** And the residual activity [26]?
**A.** 82.3%

**Q.** What about the residual activity [27] of the same molecule?
**A.** 109%

**Q.** What about the residual activity [28] of the same molecule?
**A.** 105%

**Q.** And the residual activity [29]?
**A.** 91.4%

**Q.** And the residual activity [30]?
**A.** 4.93%

**Q.** And the residual activity [31]?
**A.** 91.3%

**Q.** What about the residual activity [32] of the same molecule?
**A.** 99.6%

**Q.** And the residual activity [33]?
**A.** 93%

**Q.** What about the residual activity [34] of the same molecule?
**A.** 97.3%

**Q.** And the residual activity [35]?
**A.** 95.6%

**Q.** What about the residual activity [36] of the same molecule?
**A.** 97.8%

**Q.** What about the residual activity [37] of the same molecule?
**A.** 89%

**Q.** What about the residual activity [38] of the same molecule?
**A.** 8.59%

**Q.** What about the residual activity [39] of the same molecule?
**A.** 99.7%

**Q.** What about the residual activity [40] of the same molecule?
**A.** 114%

**Q.** And the residual activity [41]?
**A.** 91.5%

**Q.** And the residual activity [42]?
**A.** 75%

**Q.** What does the source list for `Oc1ccc(-c2nc(-c3ccc(F)cc3)c(-c3ccncc3)[nH]2)cc1`?
**A.** residual activity [1]: 105%; residual activity [2]: 104%; residual activity [3]: 102%; residual activity [4]: 99.7%; residual activity [5]: 101%; residual activity [6]: 111%; residual activity [7]: 110%; residual activity [8]: 86.3%; residual activity [9]: 98.7%; residual activity [10]: 96.2%; residual activity [11]: 92.4%; residual activity [12]: 84%; residual activity [13]: 96.8%; residual activity [14]: 106%; residual activity [15]: 93.7%; residual activity [16]: 98.8%; residual activity [17]: 97.1%; residual activity [18]: 100%; residual activity [19]: 103%; residual activity [20]: 109%; residual activity [21]: 84.3%; residual activity [22]: 99.2%; residual activity [23]: 94%; residual activity [24]: 86.8%; residual activity [25]: 99.6%; residual activity [26]: 99%; residual activity [27]: 101%; residual activity [28]: 99%; residual activity [29]: 91.1%; residual activity [30]: 97.6%; residual activity [31]: 102%; residual activity [32]: 123%; residual activity [33]: 101%; residual activity [34]: 104%; residual activity [35]: 97.7%; residual activity [36]: 83.4%; residual activity [37]: 103%; residual activity [38]: 101%; residual activity [39]: 95.9%; residual activity [40]: 83.1%; residual activity [41]: 94.8%; residual activity [42]: 118%

**Q.** `Nc1nc(Nc2ccc(S(N)(=O)=O)cc2)nn1C(=S)Nc1c(F)cccc1F` was tested. Which residual activity [1] did it give?
**A.** 3.81%

**Q.** And the residual activity [2]?
**A.** 16.7%

**Q.** What about the residual activity [3] of the same molecule?
**A.** 97.9%

**Q.** What about the residual activity [4] of the same molecule?
**A.** 89.4%

**Q.** What about the residual activity [5] of the same molecule?
**A.** 82.2%

**Q.** And the residual activity [6]?
**A.** 42.5%

**Q.** What about the residual activity [7] of the same molecule?
**A.** 2.42%

**Q.** And the residual activity [8]?
**A.** 130%

**Q.** And the residual activity [9]?
**A.** 88.5%

**Q.** What about the residual activity [10] of the same molecule?
**A.** 3.16%

**Q.** What about the residual activity [11] of the same molecule?
**A.** 76.6%

**Q.** What about the residual activity [12] of the same molecule?
**A.** 76.3%

**Q.** What about the residual activity [13] of the same molecule?
**A.** 83%

**Q.** And the residual activity [14]?
**A.** 78.8%

**Q.** And the residual activity [15]?
**A.** 76.8%

**Q.** And the residual activity [16]?
**A.** 49.1%

**Q.** What about the residual activity [17] of the same molecule?
**A.** 27.6%

**Q.** And the residual activity [18]?
**A.** 86.9%

**Q.** What about the residual activity [19] of the same molecule?
**A.** 60.6%

**Q.** What about the residual activity [20] of the same molecule?
**A.** 25.9%

**Q.** What about the residual activity [21] of the same molecule?
**A.** 78.2%

**Q.** What about the residual activity [22] of the same molecule?
**A.** 4.96%

**Q.** What about the residual activity [23] of the same molecule?
**A.** 60.5%

**Q.** And the residual activity [24]?
**A.** 6.59%

**Q.** What about the residual activity [25] of the same molecule?
**A.** 15.3%

**Q.** And the residual activity [26]?
**A.** 3.43%

**Q.** And the residual activity [27]?
**A.** 19.1%

**Q.** And the residual activity [28]?
**A.** 85.9%

**Q.** What about the residual activity [29] of the same molecule?
**A.** 6.3%

**Q.** And the residual activity [30]?
**A.** 37.9%

**Q.** What about the residual activity [31] of the same molecule?
**A.** 46.2%

**Q.** And the residual activity [32]?
**A.** 16.9%

**Q.** And the residual activity [33]?
**A.** 9.03%

**Q.** And the residual activity [34]?
**A.** 7.69%

**Q.** And the residual activity [35]?
**A.** 12.5%

**Q.** And the residual activity [36]?
**A.** 16.1%

**Q.** And the residual activity [37]?
**A.** 7.43%

**Q.** What about the residual activity [38] of the same molecule?
**A.** 38.6%

**Q.** And the residual activity [39]?
**A.** 42.8%

**Q.** And the residual activity [40]?
**A.** 98%

**Q.** What about the residual activity [41] of the same molecule?
**A.** 76.5%

**Q.** What about the residual activity [42] of the same molecule?
**A.** 5.4%

Source: the kinase profiling compilation of Christmann-Franck et al. (2016)
